Measurements reported in ChEMBL document CHEMBL3792297, “Studies on phenothiazines: New microtubule-interacting compounds with phenothiazine A-ring as potent antineoplastic agents” (Bioorg Med Chem, 2016).

Assays:
[1] = Growth inhibition of human RXF393 cells at 10 uM after 48 hrs by SRB assay relative to control; assay type: functional; conditions: RXF 393, 48 h, read-out: GI
[2] = Growth inhibition of human OVCAR3 cells at 10 uM after 48 hrs by SRB assay relative to control; assay type: functional; conditions: OVCAR-3, 48 h, read-out: GI
[3] = Growth inhibition of human NCI-ADR-RES cells after 48 hrs by SRB assay; assay type: functional
SK-MEL-5 [4] = experiment: Growth inhibition of human SK-MEL-5 cells after 48 hrs by SRB assay; assay type: functional; conditions: SK-MEL-5, 48 h
[5] = Growth inhibition of human DU145 cells at 10 uM after 48 hrs by SRB assay relative to control; assay type: functional; conditions: DU-145, 48 h, read-out: GI
ACHN [6] = experiment: Growth inhibition of human ACHN cells after 48 hrs by SRB assay; assay type: functional
786-0 = experiment: Growth inhibition of human 786-0 cells at 10 uM after 48 hrs by SRB assay relative to control; assay type: functional; conditions: 786-0, 48 h, read-out: GI
Malme-3M [7] = experiment: Growth inhibition of human MALME-3M cells after 48 hrs by SRB assay; assay type: functional
[8] = Growth inhibition of human IGROV1 cells after 48 hrs by SRB assay; assay type: functional; conditions: IGROV-1, 48 h
K562 [9] = experiment: Growth inhibition of human K562 cells after 48 hrs by SRB assay; assay type: functional; conditions: K562, 48 h
A549 = experiment: Growth inhibition of human A549 cells after 48 hrs by SRB assay; assay type: functional; conditions: A549, 48 h
[10] = Growth inhibition of human SF539 cells at 10 uM after 48 hrs by SRB assay relative to control; assay type: functional; conditions: SF-539, 48 h, read-out: GI
[11] = Growth inhibition of human OVCAR5 cells at 10 uM after 48 hrs by SRB assay relative to control; assay type: functional; conditions: OVCAR-5, 48 h, read-out: GI
[12] = Growth inhibition of human Caki1 cells after 48 hrs by SRB assay; assay type: functional; conditions: CAKI-1, 48 h
NCI-H460 = experiment: Growth inhibition of human NCI-H460 cells at 10 uM after 48 hrs by SRB assay relative to control; assay type: functional; conditions: NCI-H460, 48 h, read-out: GI
NCI-H23 = experiment: Growth inhibition of human NCI-H23 cells after 48 hrs by SRB assay; assay type: functional; conditions: NCI-H23, 48 h
NCI-H522 = experiment: Growth inhibition of human NCI-H522 cells at 10 uM after 48 hrs by SRB assay relative to control; assay type: functional; conditions: NCI-H522, 48 h, read-out: GI
[13] = Growth inhibition of human OVCAR5 cells after 48 hrs by SRB assay; assay type: functional; conditions: OVCAR-5, 48 h
[14] = Growth inhibition of human SW620 cells after 48 hrs by SRB assay; assay type: functional; conditions: SW-620, 48 h
K562 [15] = experiment: Growth inhibition of human K562 cells at 10 uM after 48 hrs by SRB assay relative to control; assay type: functional; conditions: K562, 48 h, read-out: GI
[16] = Growth inhibition of human RXF393 cells after 48 hrs by SRB assay; assay type: functional; conditions: RXF 393, 48 h
[17] = Growth inhibition of human LOXIMVI cells after 48 hrs by SRB assay; assay type: functional; conditions: LOX IMVI
SK-MEL-5 [18] = experiment: Growth inhibition of human SK-MEL-5 cells at 10 uM after 48 hrs by SRB assay relative to control; assay type: functional; conditions: SK-MEL-5, 48 h, read-out: GI
SR [19] = experiment: Growth inhibition of human SR cells after 48 hrs by SRB assay; assay type: functional
[20] = Growth inhibition of human OVCAR4 cells at 10 uM after 48 hrs by SRB assay relative to control; assay type: functional; conditions: OVCAR-4, 48 h, read-out: GI
[21] = Growth inhibition of human PC3 cells after 48 hrs by SRB assay; assay type: functional; conditions: PC-3, 48 h
[22] = Growth inhibition of human HOP92 cells after 48 hrs by SRB assay; assay type: functional; conditions: HOP-92, 48 h
U-251 = experiment: Growth inhibition of human U251 cells after 48 hrs by SRB assay; assay type: functional; conditions: U-251, 48 h
MDA-MB-468 = experiment: Growth inhibition of human MDA-MB-468 cells after 48 hrs by SRB assay; assay type: functional; conditions: MDA-MB-468, 48 h
MDA-MB-435 = experiment: Growth inhibition of human MDA-MB-435 cells at 10 uM after 48 hrs by SRB assay relative to control; assay type: functional; conditions: MDA-MB-435, 48 h, read-out: GI
T47D = experiment: Growth inhibition of human T47D cells at 10 uM after 48 hrs by SRB assay relative to control; assay type: functional; conditions: read-out: GI
[23] = Growth inhibition of human HOP92 cells at 10 uM after 48 hrs by SRB assay relative to control; assay type: functional; conditions: HOP-92, 48 h, read-out: GI
SK-MEL-28 = experiment: Growth inhibition of human SK-MEL-28 cells after 48 hrs by SRB assay; assay type: functional; conditions: SK-MEL-28, 48 h
Malme-3M [24] = experiment: Growth inhibition of human MALME-3M cells at 10 uM after 48 hrs by SRB assay relative to control; assay type: functional; conditions: read-out: GI
A498 [25] = experiment: Growth inhibition of human A498 cells after 48 hrs by SRB assay; assay type: functional; conditions: A498, 48 h
SR [26] = experiment: Growth inhibition of human SR cells at 10 uM after 48 hrs by SRB assay relative to control; assay type: functional; conditions: read-out: GI
HT-29 = experiment: Growth inhibition of human HT-29 cells at 10 uM after 48 hrs by SRB assay relative to control; assay type: functional; conditions: HT-29, 48 h, read-out: GI
[27] = Growth inhibition of human BT549 cells at 10 uM after 48 hrs by SRB assay relative to control; assay type: functional; conditions: BT-549, 48 h, read-out: GI
[28] = Growth inhibition of human MOLT4 cells after 48 hrs by SRB assay; assay type: functional; conditions: MOLT-4, 48 h
CCRF-CEM = experiment: Growth inhibition of human CCRF-CEM cells after 48 hrs by SRB assay; assay type: functional
[29] = Inhibition of sheep brain tubulin polymerization by DAPI staining-based fluorimetric method; design: species or system Ovis aries
[30] = Growth inhibition of human Caki1 cells at 10 uM after 48 hrs by SRB assay relative to control; assay type: functional; conditions: CAKI-1, 48 h, read-out: GI
ACHN [31] = experiment: Growth inhibition of human ACHN cells at 10 uM after 48 hrs by SRB assay relative to control; assay type: functional; conditions: read-out: GI
[32] = Growth inhibition of human BT549 cells after 48 hrs by SRB assay; assay type: functional; conditions: BT-549, 48 h
SN12C = experiment: Growth inhibition of human SN12C cells after 48 hrs by SRB assay; assay type: functional
A498 [33] = experiment: Growth inhibition of human A498 cells at 10 uM after 48 hrs by SRB assay relative to control; assay type: functional; conditions: A498, 48 h, read-out: GI
[34] = Growth inhibition of human SNB75 cells at 10 uM after 48 hrs by SRB assay relative to control; assay type: functional; conditions: SNB-75, 48 h, read-out: GI

COc1ccc(C(=O)N2c3ccccc3Sc3ccccc32)c(F)c1
inhibition of growth at 10 µM [1]: 100%
inhibition of growth at 10 µM [2]: 100%
GI50 [3]: 517 nM
GI50 (SK-MEL-5 [4]): 759 nM
inhibition of growth at 10 µM [5]: 95%
GI50 (ACHN [6]): 831 nM
inhibition of growth at 10 µM (786-0): 77%
GI50 (Malme-3M [7]): 16200 nM
GI50 [8]: 807 nM
GI50 (K562 [9]): 442 nM
GI50 (A549): 1190 nM
inhibition of growth at 10 µM [10]: 100%
inhibition of growth at 10 µM [11]: 38%
GI50 [12]: 584 nM
inhibition of growth at 10 µM (NCI-H460): 88%
GI50 (NCI-H23): 3420 nM
inhibition of growth at 10 µM (NCI-H522): 99%
GI50 [13]: 3660 nM
GI50 [14]: 458 nM
inhibition of growth at 10 µM (K562 [15]): 87%
GI50 [16]: 764 nM
GI50 [17]: 727 nM
inhibition of growth at 10 µM (SK-MEL-5 [18]): 84%
GI50 (SR [19]): 380 nM
inhibition of growth at 10 µM [20]: 51%
GI50 [21]: 407 nM
GI50 [22]: 238 nM
GI50 (U-251): 615 nM
GI50 (MDA-MB-468): 413 nM
inhibition of growth at 10 µM (MDA-MB-435): 100%
inhibition of growth at 10 µM (T47D): 60%
inhibition of growth at 10 µM [23]: 58%
GI50 (SK-MEL-28): 1640 nM
inhibition of growth at 10 µM (Malme-3M [24]): 53%
GI50 (A498 [25]): 330 nM
inhibition of growth at 10 µM (SR [26]): 77%
inhibition of growth at 10 µM (HT-29): 95%
inhibition of growth at 10 µM [27]: 77%
GI50 [28]: 715 nM
GI50 (CCRF-CEM): 522 nM
IC50 [29]: 22500 nM
inhibition of growth at 10 µM [30]: 55%
inhibition of growth at 10 µM (ACHN [31]): 52%
GI50 [32]: 676 nM
GI50 (SN12C): 1940 nM
inhibition of growth at 10 µM (A498 [33]): 98%
inhibition of growth at 10 µM [34]: 100%

COc1ccc(C(=O)N2c3ccccc3Sc3ccccc32)c(C(F)(F)F)c1
inhibition of growth at 10 µM [1]: 85%
inhibition of growth at 10 µM [2]: 100%
GI50 [3]: 370 nM
GI50 (SK-MEL-5 [4]): 692 nM
inhibition of growth at 10 µM [5]: 86%
GI50 (ACHN [6]): 1330 nM
inhibition of growth at 10 µM (786-0): 61%
GI50 (Malme-3M [7]): 25800 nM
GI50 [8]: 2200 nM
GI50 (K562 [9]): 349 nM
GI50 (A549): 515 nM
inhibition of growth at 10 µM [10]: 100%
inhibition of growth at 10 µM [11]: 55%
GI50 [12]: 692 nM
inhibition of growth at 10 µM (NCI-H460): 90%
GI50 (NCI-H23): 578 nM
inhibition of growth at 10 µM (NCI-H522): 98%
GI50 [13]: 1610 nM
GI50 [14]: 425 nM
inhibition of growth at 10 µM (K562 [15]): 100%
GI50 [16]: 362 nM
GI50 [17]: 516 nM
inhibition of growth at 10 µM (SK-MEL-5 [18]): 95%
GI50 (SR [19]): 312 nM
inhibition of growth at 10 µM [20]: 53%
GI50 [21]: 426 nM
GI50 [22]: 152 nM
GI50 (U-251): 500 nM
GI50 (MDA-MB-468): 364 nM
inhibition of growth at 10 µM (MDA-MB-435): 100%
inhibition of growth at 10 µM (T47D): 48%
inhibition of growth at 10 µM [23]: 85%
GI50 (SK-MEL-28): 9170 nM
inhibition of growth at 10 µM (Malme-3M [24]): 40%
GI50 (A498 [25]): 282 nM
inhibition of growth at 10 µM (SR [26]): 84%
inhibition of growth at 10 µM (HT-29): 97%
inhibition of growth at 10 µM [27]: 89%
GI50 [28]: 406 nM
GI50 (CCRF-CEM): 88 nM
IC50 [29]: 11900 nM
inhibition of growth at 10 µM [30]: 68%
inhibition of growth at 10 µM (ACHN [31]): 68%
GI50 [32]: 892 nM
GI50 (SN12C): 1300 nM
inhibition of growth at 10 µM (A498 [33]): 91%
inhibition of growth at 10 µM [34]: 71%
